Reference: US8987195B2 (priority 2012, dated 2015)
Read-outs that look alike come from different tables or passages of the source.

Columns and labels:
HCV genotype 1b replicon = assay: HCV replicon assay, genotype 1b replicon EC50; type: cell-based, Hepatitis C virus; details: Hepatitis C virus, HCV replicon, genotype 1b, read-out: EC50 [gt-1b]
In short: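 Assay format: compound titration on stable replicon cells, no G418 during treatment, 24 to 48 hours. Lysates were assayed for replicon RNA (hybridization/protection or TaqMan) or luciferase; EC50 fitted to four parameters against DMSO.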

[1] = target: HCV NS3/4A protease genotype 1b (Hepatitis C virus genotype 1b, UniProt P26663); assay: HCV NS3/4A protease time-resolved fluorescence (TRF) assay, Ki against genotype 1b; type: biochemical; details: IC50 [gt-1b], NS3/4A protease TRF assay, genotype 1b enzyme 0.2 nM
In short: (§1)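 Ki was converted from fitted IC50 using IC50=Ki(1+[S]/KM) and 25 nM substrate. Protease (genotype 1b 0.2 nM, A156T 0.4 nM, 3a 0.025 nM) and compound were pre-mixed 30 min in pH 7.5 HEPES/NaCl/glycerol/DTT buffer. Cleavage then proceeded 2.5 h at room temperature, detected by time-resolved europium fluorescence (340/615 nm).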

[2] = target: HCV NS3/4A protease A156T mutant (Hepatitis C virus genotype 1b, UniProt P26663, A1182T); assay: HCV NS3/4A protease time-resolved fluorescence (TRF) assay, Ki against A156T mutant; type: biochemical; details: NS3/4A protease TRF assay, A156T mutant enzyme 0.4 nM, read-out: IC50 [gt-1b A156T]
In short: as §1

[3] = target: HCV NS3/4A protease genotype 3a (Hepatitis C virus genotype 3a, UniProt Q81495); assay: HCV NS3/4A protease time-resolved fluorescence (TRF) assay, Ki against genotype 3a; type: biochemical
In short: as §1

`CC[C@H](C)OC(=O)N[C@H]1CCCCC/C=C\[C@@H]2C[C@@]2(C(=O)NS(=O)(=O)C2(C)CC2)NC(=O)[C@@H]2C[C@]3(CCc4c(c(C(F)(F)F)nc5ccc(OC)cc45)O3)CN2C1=O` [Example 460, (2S)-butan-2-yl [(2R,6S,12Z,13aS,14aR,16aS)-9′-methoxy-14a-{[(1-methylcyclopropyl)sulfonyl]carbamoyl}-5,16-dioxo-5′-(trifluoromethyl)-1,1′,2′,5,6,7,8,9,10,11,13a,14,14a,15,16,16a-hexadecahydrospiro[cyclopropa[e]pyrrolo[1,2-a][1,4]diazacyclopentadecine-2,3′-pyrano[2,3-c]quinolin]-6-yl]carbamate] gave an EC50 (HCV genotype 1b replicon; K+ salt) of 2.99 nM, an IC50 ([1]; K+ salt) of 0.034 nM and an IC50 ([2]; K+ salt) of 2.74 nM. It also gave an IC50 [3] of 1.78 nM.
`COc1ccc2nc(C(F)(F)F)c3c(c2c1)[C@H](F)C[C@]1(C[C@H]2C(=O)N[C@]4(C(=O)NS(=O)(=O)C5(C)CC5)C[C@H]4/C=C\CCCCC[C@H](NC(=O)OCC(C)C)C(=O)N2C1)O3` [Example 461, 2-methylpropyl [(1′R,2S,6S,12Z,13aS,14aR,16aS)-1′-fluoro-9′-methoxy-14a-{[(1-methylcyclopropyl)sulfonyl]carbamoyl}-5,16-dioxo-5′-(trifluoromethyl)-1,1′,2′,5,6,7,8,9,10,11,13a,14,14a,15,16,16a-hexadecahydrospiro[cyclopropa[e]pyrrolo[1,2-a][1,4]diazacyclopentadecine-2,3′-pyrano[2,3-c]quinolin]-6-yl]carbamate] showed an EC50 (HCV genotype 1b replicon) of 3.29 nM, an IC50 [1] of 0.029 nM and an IC50 [2] of 0.435 nM. For the same molecule, the IC50 [3] was 0.624 nM.
Molecule `COc1ccc2nc(C(F)(F)F)c3c(c2c1)CC[C@]1(C[C@H]2C(=O)N[C@]4(C(=O)NS(=O)(=O)C5(C)CC5)C[C@H]4/C=C\CCCCC[C@H](NC(=O)OC4CCOC4)C(=O)N2C1)O3` (stereo partly drawn) [Example 481, tetrahydrofuran-3-yl [(2R,6S,12Z,13aS,14aR,16aS)-9′-methoxy-14a-{[(1-methylcyclopropyl)sulfonyl]carbamoyl}-5,16-dioxo-5′-(trifluoromethyl)-1,1′,2′,5,6,7,8,9,10,11,13a,14,14a,15,16,16a-hexadecahydrospiro[cyclopropa[e]pyrrolo[1,2-a][1,4]diazacyclopentadecine-2,3′-pyrano[2,3-c]quinolin]-6-yl]carbamate] has an EC50 (HCV genotype 1b replicon; K+ salt) of 1.31 nM, an IC50 ([1]; K+ salt) of 0.006 nM and an IC50 ([2]; K+ salt) of 0.436 nM. For the same molecule, the IC50 [3] was 0.225 nM.
In the case of `CCc1nc2ccc(OC)cc2c2c1O[C@]1(CC2)C[C@H]2C(=O)N[C@]3(C(=O)NS(=O)(=O)C4(C)CC4)C[C@H]3/C=C\CCCCC[C@H](NC(=O)c3cn[nH]c3)C(=O)N2C1` [Example 482, (2R,6S,12Z,13aS,14aR,16aS)-5′-ethyl-9′-methoxy-N-[(1-methylcyclopropyl)sulfonyl]-5,16-dioxo-6-[(1H-pyrazol-4-ylcarbonyl)amino]-1,1′,2′,6,7,8,9,10,11,13a,14,15,16,16a-tetradecahydrospiro[cyclopropa[e]pyrrolo[1,2-a][1,4]diazacyclopentadecine-2,3′-pyrano[2,3-c]quinoline]-14a(5H)-carboxamide], the EC50 (HCV genotype 1b replicon) is reported as 68.6 nM, the IC50 [1] is reported as 0.008 nM and the IC50 [2] is reported as 0.101 nM. It also gave an IC50 [3] of 0.418 nM.
`CCc1nc2ccc(OC)cc2c2c1O[C@]1(CC2)C[C@H]2C(=O)N[C@]3(C(=O)NS(=O)(=O)C4(C)CC4)C[C@H]3/C=C\CCCCC[C@H](NC(=O)c3cc(C)cs3)C(=O)N2C1` [Example 483, (2R,6S,12Z,13aS,14aR,16aS)-5′-ethyl-9′-methoxy-N-[(1-methylcyclopropyl)sulfonyl]-6-{[(4-methylthiophen-2-yl)carbonyl]amino}-5,16-dioxo-1,1′,2′,6,7,8,9,10,11,13a,14,15,16,16a-tetradecahydrospiro[cyclopropa[e]pyrrolo[1,2-a][1,4]diazacyclopentadecine-2,3′-pyrano[2,3-c]quinoline]-14a(5H)-carboxamide] was tested, and the EC50 (HCV genotype 1b replicon) was 0.438 nM, the IC50 [1] was 0.008 nM and the IC50 [2] was 0.0969 nM. For the same molecule, the IC50 [3] was 0.667 nM.
`CCc1nc2ccc(OCCCOC)cc2c2c1O[C@]1(CC2)C[C@H]2C(=O)N[C@]3(C(=O)NS(=O)(=O)C4(C)CC4)C[C@H]3/C=C\CCCCC[C@H](NC(=O)OCC(C)C)C(=O)N2C1` [Example 484, 2-methylpropyl [(2R,6S,12Z,13aS,14aR,16aS)-5′-ethyl-9′-(3-methoxypropoxy)-14a-{[(1-methylcyclopropyl)sulfonyl]carbamoyl}-5,16-dioxo-1,1′,2′,5,6,7,8,9,10,11,13a,14,14a,15,16,16a-hexadecahydrospiro[cyclopropa[e]pyrrolo[1,2-a][1,4]diazacyclopentadecine-2,3′-pyrano[2,3-c]quinolin]-6-yl]carbamate] gave an EC50 (HCV genotype 1b replicon; K+ salt) of 0.357 nM, an IC50 ([1]; K+ salt) of 0.003 nM and an IC50 ([2]; K+ salt) of 0.164 nM. The IC50 [3] was 0.628 nM.
With `CCc1nc2ccc(OCCCOC)cc2c2c1O[C@]1(CC2)C[C@H]2C(=O)N[C@]3(C(=O)NS(=O)(=O)C4(C)CC4)C[C@H]3/C=C\CCCCC[C@H](NC(=O)OCC(C)(C)C)C(=O)N2C1` [Example 488, 2,2-dimethylpropyl [(2R,6S,12Z,13aS,14aR,16aS)-5′-ethyl-9′-(3-methoxypropoxy)-14a-{[(1-methylcyclopropyl)sulfonyl]carbamoyl}-5,16-dioxo-1,1′,2′,5,6,7,8,9,10,11,13a,14,14a,15,16,16a-hexadecahydrospiro[cyclopropa[e]pyrrolo[1,2-a][1,4]diazacyclopentadecine-2,3′-pyrano[2,3-c]quinolin]-6-yl]carbamate] the EC50 (HCV genotype 1b replicon; K+ salt) was 0.412 nM, the IC50 ([1]; K+ salt) was 0.004 nM and the IC50 ([2]; K+ salt) was 0.136 nM. For the same molecule, the IC50 [3] was 0.486 nM.
In the case of `CC1(S(=O)(=O)NC(=O)[C@@]23C[C@H]2/C=C\CCCCC[C@H](NC(=O)OC2C[C@@H]4C[C@@H]4C2)C(=O)N2C[C@@]4(CCc5c(c(C(F)(F)F)nc6ccc(OCF)cc56)O4)C[C@H]2C(=O)N3)CC1` (stereo partly drawn) [Example 501, (1R,5S)-bicyclo[3.1.0]hex-3-yl [(2R,6S,12Z,13aS,14aR,16aS)-9′-(fluoromethoxy)-14a-{[(1-methylcyclopropyl)sulfonyl]carbamoyl}-5,16-dioxo-5′-(trifluoromethyl)-1,1′,2′,5,6,7,8,9,10,11,13a,14,14a,15,16,16a-hexadecahydrospiro[cyclopropa[e]pyrrolo[1,2-a][1,4]diazacyclopentadecine-2,3′-pyrano[2,3-c]quinolin]-6-yl]carbamate], the EC50 (HCV genotype 1b replicon; K+ salt) is reported as 3.7 nM, the IC50 ([1]; K+ salt) is reported as 0.004 nM and the IC50 ([2]; K+ salt) is reported as 0.6 nM. The IC50 [3] was 0.206 nM.
With `CCc1nc2ccc(OC)cc2c2c1O[C@]1(CC2)C[C@H]2C(=O)N[C@]3(C(=O)NS(=O)(=O)C4(C)CC4)C[C@H]3/C=C\CCCCC[C@H](NC(=O)O[C@H](C)C3CC3)C(=O)N2C1` [Example 502, (1R)-1-cyclopropylethyl [(2R,6S,12Z,13aS,14aR,16aS)-5′-ethyl-9′-methoxy-14a-{[(1-methylcyclopropyl)sulfonyl]carbamoyl}-5,16-dioxo-1,1′,2′,5,6,7,8,9,10,11,13a,14,14a,15,16,16a-hexadecahydrospiro[cyclopropa[e]pyrrolo[1,2-a][1,4]diazacyclopentadecine-2,3′-pyrano[2,3-c]quinolin]-6-yl]carbamate] the EC50 (HCV genotype 1b replicon) was 0.29 nM, the IC50 [1] was 0.004 nM and the IC50 [2] was 0.121 nM. It also gave an IC50 [3] of 0.48 nM.
`CC(C)COC(=O)N[C@H]1CCCCC/C=C\[C@@H]2C[C@@]2(C(=O)NS(=O)(=O)C2(C)CC2)NC(=O)[C@@H]2C[C@]3(CCc4c(c(C(F)(F)F)nc5ccc(OCCCN6CCOCC6)cc45)O3)CN2C1=O` [Example 511, 2-methylpropyl [(2R,6S,12Z,13aS,14aR,16aS)-14a-{[(1-methylcyclopropyl)sulfonyl]carbamoyl}-9′-[3-(morpholin-4-yl)propoxy]-5,16-dioxo-5′-(trifluoromethyl)-1,1′,2′,5,6,7,8,9,10,11,13a,14,14a,15,16,16a-hexadecahydrospiro[cyclopropa[e]pyrrolo[1,2-a][1,4]diazacyclopentadecine-2,3′-pyrano[2,3-c]quinolin]-6-yl]carbamate] was tested, and the EC50 (HCV genotype 1b replicon) was 0.782 nM, the IC50 [1] was 0.008 nM and the IC50 [2] was 0.235 nM. It also gave an IC50 [3] of 0.258 nM.
`CCc1nc2ccc(OCCCN3CCOCC3)cc2c2c1O[C@]1(CC2)C[C@H]2C(=O)N[C@]3(C(=O)NS(=O)(=O)C4(C)CC4)C[C@H]3/C=C\CCCCC[C@H](NC(=O)OC(C)(C)C)C(=O)N2C1` [Example 514, tert-butyl {(2R,6S,12Z,13aS,14aR,16aS)-5′-ethyl-14a-{[(1-methylcyclopropyl)sulfonyl]carbamoyl}-9′-[3-(morpholin-4-yl)propoxy]-5,16-dioxo-1,1′,2′,5,6,7,8,9,10,11,13a,14,14a,15,16,16a-hexadecahydrospiro[cyclopropa[e]pyrrolo[1,2-a][1,4]diazacyclopentadecine-2,3′-pyrano[2,3-c]quinolin]-6-yl}carbamate] showed an EC50 (HCV genotype 1b replicon) of 0.668 nM, an IC50 [1] of 0.012 nM and an IC50 [2] of 0.0681 nM. It also gave an IC50 [3] of 0.224 nM.
